Data: paper PMC11206852, “Solubility, pH-Solubility Profile, pH-Rate Profile, and Kinetic Stability of the Tyrosine Kinase Inhibitor, Alectinib” (Pharmaceuticals, 2024)
Entries after “also recorded” stand apart in the source; their conditions may differ.

Experiments:
[1] = heat and accelerated stability study of solution in methanol; format: physicochemical
Procedure: Then, the rate constant of degradation at each temperature was calculated, and the shelf life of the solution at each temperature was calculated.

[2] = cited from earlier work
[3] = parameters: method as in PMID 25153538; settings: non-fasting conditions; cited from earlier work
[4] = parameters: method as in PMID 23639470; settings: 20 to 300 mg every 12 h; cited from earlier work
[5] = pH stability and pH-rate profile; format: physicochemical; settings: methanolic citrate buffer, pH 3.5, 5 and 6.2
Procedure: A citrate buffer at three pH values was prepared as described above (pH of 3.5, 5, and 6.2). […] The aim was to calculate the rate constant at each pH level and plot it against the pH values.

[6] = parameters: method as in PMID 21575866; settings: compared with free plasma concentration; cited from earlier work
[7] = pH-solubility profile; format: physicochemical; settings: for solubility at 48 h: aqueous buffer
Procedure: All buffers were at a concentration of 0.05 M. The experiment was performed in the same way as the previous experiment on solubility.

[8] = solubility study in water and different solvents; format: physicochemical; settings: thermodynamic from solid
Procedure: Then, they were covered with aluminum foil to exclude the light effect. Then, all tubes were put in a water bath at 25 ± 1 °C and 50 rpm for 48 h to reach equilibrium. After that, the samples were filtered using a 0.22 µm filter, and 1 mL was injected into the HPLC. Any sample with a high reading was diluted with the mobile phase.

[9] = photostability in solution and solid state; format: physicochemical
[10] = cited from earlier work; remark: listed apart in the source
[11] = known description, no reference given; cited from earlier work
[12] = short-term (24 h) stability of solution in methanol; format: physicochemical; settings: room temperature
[13] = tested on: NCI-H2228 cell line; parameters: method as in PMID 25205428; settings: oral administration, cited from earlier work
[14] = cited from earlier work; remark: listed apart in the source
[15] = sink conditions for dissolution test at pH 6.8 and 4.5; format: physicochemical; settings: 37 °C, 24 h, dose 150 mg, media M1-M16
Procedure: The sink conditions are necessary to perform a successful dissolution test for oral solid dosage forms. […] Phosphate buffer (pH of 6.8) and acetate buffer (pH of 4.5) were prepared. Then, SLS, Tween 80, and ethanol were tried in different concentrations to achieve the target.

## CCc1cc2c(cc1N1CCC(N3CCOCC3)CC1)C(C)(C)c1[nH]c3cc(C#N)ccc3c1C2=O.Cl [ALBHCL, 9-ethyl-6,6-dimethyl-8-[4-(morpholin-4-yl)piperidin-1-yl]-11-oxo-6,11-dihydro-5H-benzo[b]carbazole-3-carbonitrile-hydrochloride]
[1]; extrapolated to 25 °C
  rate constant K1 (at 25 °C): 0.00075 h⁻¹
[1]; solution in methanol, 25 °C
  half-life: 38.5 days
[1]; solution in methanol, 25 °C, 0.105/K25
  shelf-life of solution: 140 h
[1]; solution in methanol, 50 °C
  rate constant of degradation (first-order) K50 °C: 0.01013 h⁻¹
[1]; solution in methanol, 55 °C
  rate constant of degradation (first-order) K55 °C: 0.01382 h⁻¹
[1]; solution in methanol, 60 °C
  rate constant of degradation (first-order) K60 °C: 0.02579 h⁻¹
[2]
  adverse drug reaction: drug-induced liver injury: 1.3%
  adverse drug reaction: interstitial lung disease: 1.3%
  adverse drug reaction: photosensitivity reaction: 5.3%
  adverse drug reaction: stomatitis: 3.3%
  adverse drug reaction: weight gain: 9.9%
  nephrotoxicity: reported in rare cases
[2]; increased exposure, ref Pruis et al. 17
  bradycardia: linked to bradycardia
[3]
  increase of AUC: 20%
  increase of Cmax: 20%
[4]
  time of peak plasma levels after administration: 2.00 to 4.61 h
[5]
  effect of pH on stability: increasing the pH would increase stability
[6]
  measured concentrations in the blood-cerebrospinal fluid (CSF) barrier: approximately equal to the free concentration of ALBHCl in plasma
[7]; pH 3.5, citrate buffer 0.05 M
  solubility at 48 h: 50 µg/mL
[7]; pH 5, citrate buffer 0.05 M
  solubility at 48 h: 25.8 µg/mL
[7]; pH 1.2, chloride buffer, chromatogram after 24 h
  stability at pH 1.2: showed degradation; also recorded: instability
[7]; pH 1.2 to 10
  pH of maximum solubility: 3.5
[8]; PEG 400, organic solvent or mixture, PEG400, 25 °C, read-out: solubility
  solubility at 48 h: 260 ± 6 µg/mL
[8]; organic solvent or mixture, DMSO, 25 °C, read-out: solubility
  solubility at 48 h: 4500 ± 6.1 µg/mL
[8]; organic solvent or mixture, THF, 25 °C, read-out: solubility
  solubility at 48 h: 280.9 ± 2.4 µg/mL
[8]; organic solvent or mixture, acetonitrile, 25 °C, read-out: solubility
  solubility at 48 h: 150.2 ± 1.1 µg/mL
[8]; organic solvent or mixture, chloroform, 25 °C, read-out: solubility
  solubility at 48 h: 620.3 ± 0.58 µg/mL
[8]; organic solvent or mixture, ethanol, 25 °C, read-out: solubility
  solubility at 48 h: 210 ± 4.5 µg/mL
[8]; organic solvent or mixture, methanol, 25 °C, read-out: solubility
  solubility at 48 h: 1991 ± 7.2 µg/mL
[8]; propylene glycol, organic solvent or mixture, PG, 25 °C, read-out: solubility
  solubility at 48 h: 211 ± 5.8 µg/mL
[8]; water, 25 °C, read-out: absolute solubility
  solubility at 48 h: 10.3 ± 1.2 µg/mL
[9]; solid powder, 36 h light
  remained intact after exposure to light: 82%
[9]; solid powder, light, up to 36 h
  recovery from analysis of the powder: 99%
[9]; solution in methanol exposed to light, solution, light, room temperature, read-out: half-life of photodegradation (converted)
  half-life at 50 µg/mL: 0.346 days
[9]; solution in methanol, 36 h light
  intact ALBHCL remaining after exposure to light: 32%
[9]; solution, light
  rate constant of photodegradation (first-order) K: 0.0829 h⁻¹
[10]
  lipophilicity: highly lipophilic
[10]; no method or reference given
  logP: 5.5
[11]
  solubility in water, descriptive: practically insoluble
[12]
  duration of stability of solutions: 24 h
[13]; NCI-H2228 cell line
  tumor regression: notable regression
[13]; tumor-bearing mice
  ED50 of tumor suppression: 0.46 mg/kg
[14]
  route of most elimination: feces
[15]
  dissolution media that fulfilled sink conditions: phosphate buffer 6.8 + 2% SLS (M3), phosphate buffer 6.8 + 5% Tween 80 (M6), acetate buffer 4.5 + 2% SLS (M11), and acetate buffer 4.5 + 5% Tween 80 (M14)
